Reference: article PMC7078208, “Interaction of SHP-2 SH2 domains with PD-1 ITSM induces PD-1 dimerization and SHP-2 activation” (Communications Biology, 2020)

Assays:
Assay type in all cases: biochemical
SHP-2-WT = experiment: SHP-2 phosphatase activity, DiFMUP substrate
SHP-2-R32A = experiment: SHP-2 phosphatase activity, DiFMUP substrate, R32A mutant; settings: 4-Ahx spacer peptide; Fig. 5c
Method: (§1) Catalytic activity of SHP-2 was monitored by a fluorescent assay using the substrate 6,8-difluoro-4-[…] (DiFMUP) as previously with slight modifications[38],[68]. Specifically, the phosphatase reactions were performed in 50 mM HEPES, pH 7.4, 100 mM NaCl and 10 mM DTT in 96-well black polystyrene plate, flat bottom, non-binding surface, using a final reaction volume of 100 µl. In all, 1.6 µg/ml of SHP-2-WT or mutant proteins were incubated with 20 µM DiFMUP with the indicated concentrations of phosphotyrosyl peptides or without peptide at 37 °C. For some experiments with highly SHP-2-activating peptides we used 0.5 µg/ml of SHP-2-WT so that activity measurements could fall within range. Fluorescence signal was monitored every 1 min for 3 min by a SpectraMax5 microplate reader and reaction rate was calculated by the change of fluorescence signal with time using excitation and emission wavelengths of 340 nm and 450 nm, respectively. Under these conditions, product formation was linear with respect to the time of incubation. Results were normalized against the basal activity determined for each condition in the absence of peptide and activity was calculated.

SHP-2-R138A = experiment: SHP-2 phosphatase activity, DiFMUP substrate, R138A mutant; settings: Fig. 5c
Method: as §1

fold lower phosphopeptide concentration for robust increase in SHP-2 activity than pITIM-pITSM (SHP-2-WT; DiFMUP substrate, Fig. 5a): 1000 fold | potency in inducing SHP-2 activation compared with bpIRS (SHP-2-WT; Supplementary Fig. 12, peptides at 20 nM): approximately three times more potent | SHP-2 activity caused by peptide (SHP-2-R32A): abrogated | SHP-2 activity caused by peptide (SHP-2-R138A; 4-Ahx spacer peptide): abrogated | peptide concentration at which a small induction of SHP-2 activity was observed (SHP-2-R138A): above 1 µM
Substance: TE(pY)ATIVFP-Ahx4-QTE(pY)ATIVFPS [bpITSM, bisphosphoryl ITSM-ITSM peptide with 4-Ahx spacer]
